Measurements reported in US9186360B2, “Treatment of respiratory disorders using TRPA1 antagonists” (GLENMARK PHARMACEUTICALS S.A., priority 2011, dated 2015).

Key:
Assay type in all cases: cell-based
human TRPV1 = human TRPV1 (Homo sapiens (Human), UniProt Q8NER1); assay: Radiometric calcium selectivity assay, CHO cells expressing human TRPV1 (capsaicin); settings: read-out: IC50 values hTRPV1
Method: (§1) For selectivity screening, CHO cells stably expressing human TRPV1, human TRPV3, human TRPV4, or human TRPM8 were generated in-house and maintained in DMEM F-12 supplemented with 10% FBS and G418. All the cell types were cultured at 37° C. in humidified air containing 5% CO2. Radiometric calcium assay was performed as described above with some minor modifications. Assay was carried out in total volume of 200 μl at 30° C. (for TRPV1), 32° C. (for TRPV3) and 25° C. (for TRPV4 and TRPM8). Agonists used for selectivity screening of the different TRPs are: Capsaicin for TRPV1,2-aminoethoxydiphenyl borate for TRPV3, 4α-phorbol 12,13-didecanoate for TRPV4 and Icilin for TRPM8. After 2-5 minutes of agonist treatment, drug was washed and lysed in lysis buffer as mentioned above. Radioactivity in the lysate was measured in Packard Top count after addition of liquid scintillant.

human TRPA1 = human TRPA1 (Homo sapiens (Human), UniProt O75762); assay: 45Calcium uptake assay, AITC induced, human TRPA1 expressing CHO cells; settings: AITC 30 micromolar, read-out: IC50 values hTRPA1
Method: As contemplated herein, the IC50 value is measured by the following method. The inhibition of TRPA1 receptor activation is measured as inhibition of allylisothiocyanate (AITC) induced cellular uptake of radioactive calcium. Test solution of test compound is prepared in a suitable solvent using appropriate method. Human TRPA1 expressing CHO cells are grown in suitable medium. Cells are treated with test compounds followed by addition of AITC. Cells are washed and lysed. Radioactivity in the lysate is measured in Packard Top count after addition of liquid scintillant. The concentration response curves for compounds are plotted as a % of maximal response obtained in the absence of test antagonist, and the IC50 values are calculated from such concentration response curve by nonlinear regression analysis using GraphPad PRISM software.
The illustrative TRPA1 antagonists of the present invention were screened for TRPA1 activity according to a modified procedure described in Tóth, A. et al., Life Sciences 2003, 73, 487-498. The screening of the compounds can be carried out by other methods and procedures known to persons skilled in the art.
Screening for TRPA1 Antagonist Using the 45Calcium Uptake Assay:
The inhibition of TRPA1 receptor activation was measured as inhibition of allylisothiocyanate (AITC) induced cellular uptake of radioactive calcium. Test compounds were dissolved in DMSO to prepare 10 mM stock solution and then diluted using plain medium with 0.1% BSA and 1.8 mM CaCl2 to get desired concentration. Final concentration of DMSO in the reaction was 0.5% (v/v). Human TRPA1 expressing CHO cells were grown in F-12 DMEM medium with 10% FBS, 1% penicillin-streptomycin solution, and 400 μg/ml of G-418. Cells were seeded 24 h prior to the assay in 96 well plates so as to get ˜50,000 cells per well on the day of experiment. Cells were treated with test compounds for 10 min followed by addition of AITC at a final concentration of 30 micromolar and 5 μCi/ml 45Ca+2 for 3 min at 25° C. Cells were washed and lysed using buffer containing 1% Triton X-100, 0.1% deoxycholate and 0.1% SDS. Radioactivity in the lysate was measured in Packard Top count after addition of liquid scintillant.
Concentration response curves were plotted as a % of maximal response obtained in the absence of test antagonist. IC50 value was calculated from concentration response curve by nonlinear regression analysis using GraphPad PRISM software.

human TRPV3 = human TRPV3 (Homo sapiens (Human), UniProt Q8NET8); assay: Radiometric calcium selectivity assay, CHO cells expressing human TRPV3 (2-aminoethoxydiphenyl borate); settings: read-out: IC50 values hTRPV3
Method: as §1

human TRPV4 = human TRPV4 (Homo sapiens (Human), UniProt Q9HBA0); assay: Radiometric calcium selectivity assay, CHO cells expressing human TRPV4 (4α-phorbol 12,13-didecanoate); settings: read-out: IC50 values hTRPV4
Method: as §1

human TRPM8 = human TRPM8 (Homo sapiens (Human), UniProt Q7Z2W7); assay: Radiometric calcium selectivity assay, CHO cells expressing human TRPM8 (icilin); settings: read-out: IC50 values hTRPM8
Method: as §1

Chain of human TRPV4 (Q9HBA0 whole entry): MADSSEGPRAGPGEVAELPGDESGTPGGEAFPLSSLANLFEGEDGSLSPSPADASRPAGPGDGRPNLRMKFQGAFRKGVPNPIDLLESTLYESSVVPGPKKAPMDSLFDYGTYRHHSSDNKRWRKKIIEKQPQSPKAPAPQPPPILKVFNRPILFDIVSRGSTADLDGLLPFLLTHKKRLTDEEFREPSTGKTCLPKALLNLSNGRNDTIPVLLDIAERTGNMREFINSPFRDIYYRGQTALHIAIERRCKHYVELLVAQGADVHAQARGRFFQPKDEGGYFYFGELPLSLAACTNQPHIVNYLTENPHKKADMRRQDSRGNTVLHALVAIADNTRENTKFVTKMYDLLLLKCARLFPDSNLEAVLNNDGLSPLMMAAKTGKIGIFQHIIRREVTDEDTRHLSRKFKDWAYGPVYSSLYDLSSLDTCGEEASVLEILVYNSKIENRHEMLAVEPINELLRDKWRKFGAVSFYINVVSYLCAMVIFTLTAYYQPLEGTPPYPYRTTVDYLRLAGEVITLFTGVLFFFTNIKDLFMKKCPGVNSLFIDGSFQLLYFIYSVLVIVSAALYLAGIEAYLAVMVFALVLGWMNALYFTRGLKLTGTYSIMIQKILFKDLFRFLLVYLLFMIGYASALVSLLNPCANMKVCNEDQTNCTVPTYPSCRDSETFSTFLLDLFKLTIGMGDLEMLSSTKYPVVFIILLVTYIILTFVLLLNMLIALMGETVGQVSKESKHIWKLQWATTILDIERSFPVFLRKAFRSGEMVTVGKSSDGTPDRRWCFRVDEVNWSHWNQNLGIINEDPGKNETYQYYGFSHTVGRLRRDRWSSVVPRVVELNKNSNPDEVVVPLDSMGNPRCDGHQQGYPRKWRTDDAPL
Chain of human TRPV3 (Q8NET8 whole entry): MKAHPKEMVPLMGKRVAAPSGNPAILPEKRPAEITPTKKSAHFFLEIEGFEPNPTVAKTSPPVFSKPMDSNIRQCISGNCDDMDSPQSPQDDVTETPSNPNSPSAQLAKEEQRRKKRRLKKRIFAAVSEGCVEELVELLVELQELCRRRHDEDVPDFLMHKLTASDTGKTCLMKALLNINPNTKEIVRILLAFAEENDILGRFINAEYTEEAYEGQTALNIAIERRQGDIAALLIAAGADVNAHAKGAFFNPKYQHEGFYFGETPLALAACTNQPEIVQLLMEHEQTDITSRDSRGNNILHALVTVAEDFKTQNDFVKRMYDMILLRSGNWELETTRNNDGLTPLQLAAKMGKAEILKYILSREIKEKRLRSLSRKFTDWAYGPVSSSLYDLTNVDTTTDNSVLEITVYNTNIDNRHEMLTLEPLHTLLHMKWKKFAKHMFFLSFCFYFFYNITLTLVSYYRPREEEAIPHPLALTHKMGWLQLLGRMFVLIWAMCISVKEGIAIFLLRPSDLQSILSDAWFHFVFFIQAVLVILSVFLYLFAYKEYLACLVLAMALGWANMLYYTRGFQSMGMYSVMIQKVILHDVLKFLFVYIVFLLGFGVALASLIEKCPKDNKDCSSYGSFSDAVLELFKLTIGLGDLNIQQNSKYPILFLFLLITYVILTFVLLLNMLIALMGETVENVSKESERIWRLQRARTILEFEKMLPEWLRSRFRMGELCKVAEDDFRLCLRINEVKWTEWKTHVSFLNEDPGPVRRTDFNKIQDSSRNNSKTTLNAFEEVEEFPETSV
Chain of human TRPA1 (O75762 whole entry): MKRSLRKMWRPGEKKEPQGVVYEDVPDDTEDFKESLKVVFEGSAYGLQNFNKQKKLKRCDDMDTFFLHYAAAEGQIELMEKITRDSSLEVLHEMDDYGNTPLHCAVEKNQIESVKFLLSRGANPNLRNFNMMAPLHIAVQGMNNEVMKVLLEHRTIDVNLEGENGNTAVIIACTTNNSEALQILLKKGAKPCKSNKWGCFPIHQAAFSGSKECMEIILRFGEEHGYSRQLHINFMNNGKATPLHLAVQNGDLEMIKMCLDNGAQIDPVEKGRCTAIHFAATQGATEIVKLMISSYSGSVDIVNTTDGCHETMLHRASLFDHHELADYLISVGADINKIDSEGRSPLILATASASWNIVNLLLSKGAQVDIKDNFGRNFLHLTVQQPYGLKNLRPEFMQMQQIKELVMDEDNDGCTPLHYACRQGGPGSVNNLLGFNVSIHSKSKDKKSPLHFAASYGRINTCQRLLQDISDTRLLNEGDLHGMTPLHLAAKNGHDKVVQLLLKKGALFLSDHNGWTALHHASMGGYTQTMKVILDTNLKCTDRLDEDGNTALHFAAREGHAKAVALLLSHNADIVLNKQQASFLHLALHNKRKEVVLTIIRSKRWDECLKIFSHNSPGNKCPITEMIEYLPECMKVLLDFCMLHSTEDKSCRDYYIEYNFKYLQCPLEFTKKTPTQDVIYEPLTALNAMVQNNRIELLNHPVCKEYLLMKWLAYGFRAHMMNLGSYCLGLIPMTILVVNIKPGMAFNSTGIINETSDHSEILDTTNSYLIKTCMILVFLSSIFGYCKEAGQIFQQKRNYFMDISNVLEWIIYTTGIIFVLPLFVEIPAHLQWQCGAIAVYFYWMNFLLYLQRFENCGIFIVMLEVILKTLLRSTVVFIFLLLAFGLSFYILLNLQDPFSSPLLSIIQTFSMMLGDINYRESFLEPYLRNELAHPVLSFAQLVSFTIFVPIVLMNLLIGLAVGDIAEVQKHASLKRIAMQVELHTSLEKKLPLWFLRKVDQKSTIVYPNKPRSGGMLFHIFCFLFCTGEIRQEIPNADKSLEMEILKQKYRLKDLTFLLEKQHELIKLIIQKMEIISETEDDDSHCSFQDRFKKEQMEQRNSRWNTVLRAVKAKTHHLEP
Chain of human TRPM8 (Q7Z2W7 whole entry): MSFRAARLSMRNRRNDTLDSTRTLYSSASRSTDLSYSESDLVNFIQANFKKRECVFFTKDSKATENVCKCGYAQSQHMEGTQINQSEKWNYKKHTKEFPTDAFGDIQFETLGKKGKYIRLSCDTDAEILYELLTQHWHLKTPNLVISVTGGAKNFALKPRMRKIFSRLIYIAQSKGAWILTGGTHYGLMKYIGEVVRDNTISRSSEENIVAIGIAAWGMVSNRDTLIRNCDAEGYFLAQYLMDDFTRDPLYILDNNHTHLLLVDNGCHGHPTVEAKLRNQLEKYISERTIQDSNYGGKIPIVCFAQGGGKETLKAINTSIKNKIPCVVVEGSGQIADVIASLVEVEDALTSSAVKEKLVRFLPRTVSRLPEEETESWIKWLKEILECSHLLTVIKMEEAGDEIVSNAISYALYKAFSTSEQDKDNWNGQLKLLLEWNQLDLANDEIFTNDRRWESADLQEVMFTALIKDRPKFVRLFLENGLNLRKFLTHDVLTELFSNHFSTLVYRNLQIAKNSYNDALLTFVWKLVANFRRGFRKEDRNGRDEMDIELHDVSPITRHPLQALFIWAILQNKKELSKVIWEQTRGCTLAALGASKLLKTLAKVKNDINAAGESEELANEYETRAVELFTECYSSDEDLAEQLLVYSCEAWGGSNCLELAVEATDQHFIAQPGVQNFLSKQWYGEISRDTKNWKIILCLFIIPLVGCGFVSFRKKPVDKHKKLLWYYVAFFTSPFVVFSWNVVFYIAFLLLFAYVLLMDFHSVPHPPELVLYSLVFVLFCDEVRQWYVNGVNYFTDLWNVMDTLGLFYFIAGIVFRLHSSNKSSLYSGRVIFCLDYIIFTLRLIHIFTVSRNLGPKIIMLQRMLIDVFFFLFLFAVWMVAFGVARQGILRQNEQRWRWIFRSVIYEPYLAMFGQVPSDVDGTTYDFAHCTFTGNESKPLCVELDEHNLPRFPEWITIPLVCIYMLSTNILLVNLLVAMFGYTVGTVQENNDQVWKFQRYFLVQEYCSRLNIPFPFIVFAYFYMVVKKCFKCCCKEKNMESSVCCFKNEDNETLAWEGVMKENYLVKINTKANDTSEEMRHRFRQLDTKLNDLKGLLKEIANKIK
Chain of human TRPV1 (Q8NER1 whole entry): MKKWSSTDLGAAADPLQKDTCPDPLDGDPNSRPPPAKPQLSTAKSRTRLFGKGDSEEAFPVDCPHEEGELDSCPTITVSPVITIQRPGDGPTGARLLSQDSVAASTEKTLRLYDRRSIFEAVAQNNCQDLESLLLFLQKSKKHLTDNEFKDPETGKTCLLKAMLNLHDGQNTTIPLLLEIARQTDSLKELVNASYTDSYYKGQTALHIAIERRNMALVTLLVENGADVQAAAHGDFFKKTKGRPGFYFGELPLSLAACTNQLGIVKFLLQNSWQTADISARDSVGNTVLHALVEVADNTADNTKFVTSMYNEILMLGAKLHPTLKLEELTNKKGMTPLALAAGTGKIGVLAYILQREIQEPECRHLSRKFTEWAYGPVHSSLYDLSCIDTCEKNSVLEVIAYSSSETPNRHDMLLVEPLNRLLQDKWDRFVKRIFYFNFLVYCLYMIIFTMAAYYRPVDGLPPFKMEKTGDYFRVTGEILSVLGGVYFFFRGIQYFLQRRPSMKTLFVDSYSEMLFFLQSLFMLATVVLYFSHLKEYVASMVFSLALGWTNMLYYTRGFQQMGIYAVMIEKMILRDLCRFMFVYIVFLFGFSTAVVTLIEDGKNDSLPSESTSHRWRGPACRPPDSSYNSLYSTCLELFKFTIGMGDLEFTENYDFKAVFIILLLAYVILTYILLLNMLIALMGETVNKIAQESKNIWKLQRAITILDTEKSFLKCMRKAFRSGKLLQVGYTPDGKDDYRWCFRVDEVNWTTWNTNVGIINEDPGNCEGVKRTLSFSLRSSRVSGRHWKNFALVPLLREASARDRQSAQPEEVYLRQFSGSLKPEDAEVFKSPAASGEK

SMILES	IC50 (human TRPV1) [nM]	IC50 (human TRPA1) [nM]	IC50 (human TRPV3) [nM]	IC50 (human TRPV4) [nM]	IC50 (human TRPM8) [nM]
Cn1c(=O)c2c(CC(=O)Nc3nc(-c4ccc(F)c(C(F)(F)F)c4)cs3)cccc2n(C)c1=O [Compound 20]	> 10000	20.1	> 1000	1670	> 10000
Cn1c(=O)c2c(CC(=O)Nc3nc(-c4ccc(C(F)(F)F)cc4)cs3)cccc2n(C)c1=O [Compound 11]	> 10000	46.3	> 10000	1500	> 10000
CCc1sc2c(c1CC(=O)Nc1nc(-c3cc(F)c(OC(F)F)c(F)c3)cs1)c(=O)n(C)c(=O)n2C [Compound 48]	> 10000	18.1	> 10000	> 10000	> 10000
CN1C(=O)c2c(ncn2CC(=O)Nc2nc(-c3ccc(C(C)(C)C)cc3)cs2)N2CCN=C12 [Compound 2]	> 10000	382	> 10000	3840	> 10000
Cn1c(=O)c2c(CC(=O)Nc3nc(-c4cccc(Cl)c4F)cs3)cccc2n(C)c1=O [Compound 25]	> 10000	58.5	> 1000	> 1000	> 10000
Cn1c(=O)c2c(CC(=O)Nc3nc(-c4ccc(C(F)(F)F)c(F)c4)cs3)ccnc2n(C)c1=O [Compound 85]	> 10000	8.92	> 1000	620	> 10000
Cn1c(=O)c2c(CC(=O)Nc3nc(-c4cccc(OC(F)(F)F)c4)cs3)cccc2n(C)c1=O [Compound 26]	> 10000	47.9	> 1000	> 1000	> 10000
Cc1oc2c(c1CC(=O)Nc1nc(-c3ccc(C(F)(F)F)cc3F)cs1)c(=O)n(C)c(=O)n2C [Compound 65]	> 10000	6.65	> 1000	> 1000	> 10000
Cn1c(=O)c2c(CC(=O)Nc3nc(-c4cc(F)c(C(F)(F)F)c(F)c4)cs3)cccc2n(C)c1=O [Compound 33]	> 10000	5.37	> 10000	< 1000	> 10000
CC(C)COc1ccc(-c2csc(NC(=O)Cc3cccc4c3c(=O)n(C)c(=O)n4C)n2)cc1 [Compound 23]	> 10000	43.9	> 10000	> 1000	> 10000
Cn1c(=O)c2c(CC(=O)Nc3nc(-c4ccc(C(F)(F)F)c(F)c4F)cs3)cccc2n(C)c1=O [Compound 28]	> 10000	6.49	> 1000	903	> 10000
Cn1nc2c(c1CC(=O)Nc1nc(-c3ccc(C(F)(F)F)c(F)c3)cs1)c(=O)n(C)c(=O)n2C [Compound 38]	> 10000	15.9	> 10000	> 1000	> 10000
Cn1nc2c(c1CC(=O)Nc1nc(-c3ccc(C(F)(F)F)cc3)cs1)c(=O)n(C)c(=O)n2C [Compound 39]	> 10000	26.6	> 10000	> 1000	> 10000
Cn1c(=O)c2c(cnn2CC(=O)Nc2nc(-c3cc(F)c(OCC(C)(C)C)c(F)c3)cs2)n(C)c1=O [Compound 40]	> 10000	22.8	> 10000	> 10000	> 10000
Cn1c(=O)c2c(CC(=O)Nc3nc(-c4ccc(Br)cc4)cs3)cccc2n(C)c1=O [Compound 3]	> 10000	73.3	> 10000	969	> 10000
Cn1c(=O)c2c(cnn2CC(=O)Nc2nc(-c3cc(F)c(OCC(C)(C)C)c(Cl)c3)cs2)n(C)c1=O [Compound 42]	> 10000	11.4	> 10000	> 10000	> 10000
Cn1c(=O)c2c(CC(=O)Nc3nc(-c4ccc(C(F)(F)F)c(F)c4)cs3)coc2n(C)c1=O [Compound 54]	> 10000	17.7	> 1000	> 1000	> 10000
Cn1c(=O)c2c(CC(=O)Nc3nc(-c4cc(F)cc(C(F)(F)F)c4)cs3)nsc2n(C)c1=O [Compound 83]	> 10000	4.4	> 1000	236	> 10000
Cn1c(=O)c2c(CC(=O)Nc3nc(-c4cc(Cl)ccc4F)cs3)cccc2n(C)c1=O [Compound 24]	> 10000	138	> 1000	> 10000	> 10000
Cn1c(=O)c2c(ccn2CC(=O)Nc2nc(-c3cc(Cl)c(OCCC(F)(F)F)c(Cl)c3)cs2)n(C)c1=O [Compound 35]	> 10000	18.1	> 10000	> 10000	> 10000
Cn1c(=O)c2c(CC(=O)Nc3nc(-c4ccc(C(F)(F)F)c(F)c4)cs3)cccc2n(C)c1=O [Compound 18]	> 10000	13.4	> 10000	1320	> 10000
Cn1c(=O)c2c(CC(=O)Nc3nc(-c4cc(F)c(CCC(F)(F)F)c(F)c4)cs3)coc2n(C)c1=O [Compound 56]	> 10000	3.38	> 10000	> 1000	> 10000
Cc1oc2c(c1CC(=O)Nc1nc(-c3cccc(C(F)(F)F)c3F)cs1)c(=O)n(C)c(=O)n2C [Compound 67]	> 10000	13.6	> 1000	> 10000	> 10000
Cc1oc2c(c1CC(=O)Nc1nc(-c3ccc(OC(F)(F)F)c(F)c3)cs1)c(=O)n(C)c(=O)n2C [Compound 70]	> 10000	12.6	> 1000	> 1000	> 10000
CC(C)COc1c(F)cc(-c2csc(NC(=O)Cc3coc4c3c(=O)n(C)c(=O)n4C)n2)cc1F [Compound 53]	> 10000	18.2	> 10000	> 1000	> 10000
Cn1c(=O)c2c(CC(=O)Nc3nc(-c4ccc(OC(F)(F)F)c(Cl)c4)cs3)nsc2n(C)c1=O [Compound 80]	> 10000	6.28	> 10000	279	> 10000
Cc1oc2c(c1CC(=O)Nc1nc(-c3ccc(OCC(F)(F)F)c(Cl)c3)cs1)c(=O)n(C)c(=O)n2C [Compound 74]	> 10000	5.29	> 10000	> 10000	> 10000
Cn1c(=O)c2c(CC(=O)Nc3nc(-c4cccc(C(F)(F)F)c4)cs3)cccc2n(C)c1=O [Compound 7]	> 10000	47.4	2100	1870	> 10000
CN1C(=O)c2c(ncn2CC(=O)Nc2nc(-c3ccc(Br)cc3)cs2)N2CCN=C12 [Compound 1]	> 10000	921	> 10000	> 10000	> 10000
Cn1c(=O)c2c(CC(=O)Nc3nc(-c4cccc(C(F)(F)F)c4F)cs3)coc2n(C)c1=O [Compound 59]	> 10000	2.21	> 1000	2830	> 10000
